Source: ChEMBL document CHEMBL1147410, “Binding of an imidazopyridoindole at imidazoline I2 receptors” (Bioorg Med Chem Lett, 2004)

Tests used:
[1] = Binding affinity for rat imidazoline I2 receptor from crude P2 membranes
[2] = Binding affinity for rat imidazoline I2 receptor from crude P2 membranes; 1-5
[3] = Binding affinity for rat imidazoline I2 receptor from crude P2 membranes; 350-880
[4] = target: T1, Adrenergic receptor alpha-2 (Rattus norvegicus, UniProt P22086+P19328+P22909); test: Binding affinity for rat alpha-2 adrenergic receptor from crude P2 membranes
T1 sequence (P22086 whole entry): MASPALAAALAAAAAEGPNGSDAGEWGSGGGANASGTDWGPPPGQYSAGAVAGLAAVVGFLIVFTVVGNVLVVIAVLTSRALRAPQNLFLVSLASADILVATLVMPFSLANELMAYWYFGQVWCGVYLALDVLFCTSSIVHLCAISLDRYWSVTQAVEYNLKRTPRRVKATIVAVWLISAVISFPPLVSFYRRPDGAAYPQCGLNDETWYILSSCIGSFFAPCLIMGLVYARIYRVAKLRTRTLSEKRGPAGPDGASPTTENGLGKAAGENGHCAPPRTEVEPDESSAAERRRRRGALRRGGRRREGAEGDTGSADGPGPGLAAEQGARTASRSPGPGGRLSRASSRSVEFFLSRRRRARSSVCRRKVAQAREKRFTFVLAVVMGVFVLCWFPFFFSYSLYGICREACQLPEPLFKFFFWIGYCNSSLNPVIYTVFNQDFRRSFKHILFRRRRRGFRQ
T1 sequence (P19328 whole entry): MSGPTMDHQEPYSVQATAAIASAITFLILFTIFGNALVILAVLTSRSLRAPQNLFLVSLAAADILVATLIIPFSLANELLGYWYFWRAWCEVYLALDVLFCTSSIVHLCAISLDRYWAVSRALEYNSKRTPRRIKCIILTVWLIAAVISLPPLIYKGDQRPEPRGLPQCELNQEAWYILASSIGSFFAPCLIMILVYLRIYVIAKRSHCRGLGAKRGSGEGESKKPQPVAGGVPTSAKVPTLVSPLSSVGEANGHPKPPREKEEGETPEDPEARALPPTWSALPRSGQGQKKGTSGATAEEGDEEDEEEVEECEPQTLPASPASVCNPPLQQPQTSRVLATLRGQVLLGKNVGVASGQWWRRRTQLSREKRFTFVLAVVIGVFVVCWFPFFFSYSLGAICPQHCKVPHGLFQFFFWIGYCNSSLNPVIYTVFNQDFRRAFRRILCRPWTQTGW
T1 sequence (P22909 whole entry): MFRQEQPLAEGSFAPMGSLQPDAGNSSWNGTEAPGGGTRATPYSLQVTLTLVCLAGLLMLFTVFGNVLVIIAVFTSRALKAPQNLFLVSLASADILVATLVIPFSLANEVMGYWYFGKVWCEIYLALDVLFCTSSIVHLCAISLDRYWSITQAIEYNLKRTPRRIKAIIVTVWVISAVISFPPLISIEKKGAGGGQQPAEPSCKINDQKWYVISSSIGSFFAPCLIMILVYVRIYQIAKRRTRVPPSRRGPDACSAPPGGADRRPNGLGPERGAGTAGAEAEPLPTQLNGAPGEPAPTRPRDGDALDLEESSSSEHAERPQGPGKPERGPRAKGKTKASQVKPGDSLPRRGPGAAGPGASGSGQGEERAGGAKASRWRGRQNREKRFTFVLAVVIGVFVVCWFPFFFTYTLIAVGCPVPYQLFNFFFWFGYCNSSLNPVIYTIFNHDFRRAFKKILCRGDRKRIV

| Ki [1] [nM] | Structure (SMILES) | Ki [4] [nM] | further results |
| --- | --- | --- | --- |
| 2340 | c1coc(C2=NCCN2)c1 |  |  |
|  | c1ccc(OCC2=NCCN2)cc1 |  | Ki [2]: 5 nM |
|  | c1ccc2oc(-c3ncc[nH]3)cc2c1 |  | Ki [3]: ~880 nM |
| 7.3 | c1ccc2c3c([nH]c2c1)C1=NCCN1CC3 |  |  |
| < 10 | c1ccc2oc(C3=NCCN3)cc2c1 | 4000 |  |
|  | COc1ccc2c3c([nH]c2c1)CNCC3 | 8840 |  |
|  | c1ccc(CCC2=NCCN2)cc1 [PHENYZOLINE] |  | Ki [2]: 5 nM |
| 2 | C(=C\c1ccccc1)/C1=NCCN1 [TRACIZOLINE] | 7413 |  |

| Structure (SMILES) | Ki [1] [nM] | Ki [4] [nM] | further results |
| --- | --- | --- | --- |
| c1ccc2c(c1)CC(C1=NCCN1)O2 (stereo not drawn) | ~50 |  |  |
| c1ccc2c3c([nH]c2c1)CNCC3 [TRYPTOLINE] | 9.4 | 710 |  |
